# Reference: patent US6713051B2, “Antiperspirant or deodorant compositions” (Unilever Home & Personal Care USA division of Conopco, Inc., priority 2001, dated 2004)
# What was measured:
# [1] = tested on: Human foreskin keratinocytes; assay: Keratinocyte proliferation analysis (DNA content per well, Pico Green); assay type: cell-based; details: for keratinocyte DNA synthesis activity, statement: 1 way ANOVA, p<0.05; for DNA: 4 days
# Procedure: (§1) Human foreskin keratinocytes (passage 3) were seeded at 4000 cells/well in 96 well plates in Keratinocyte Growth Medium (abbreviated to KGM) containing 0.03 mM calcium and grown for 3 days at 37° C. The cells were then treated with PPAR ligands in KGM containing 0.03 mM calcium for 4 days prior to harvest. Stock solutions of PPAR ligands were dissolved in dimethylsulphoxide (DMSO) and diluted in KGM before adding to the cells. […] The harvested cells were washed 3× in phosphate buffered saline (PBS) and extracted in 1% Triton X100, 50 mM (tris[hydroxymethyl]aminomethane) (Tris) pH 8.0 plus protease inhibitors pepstatin and leupeptin (100 μl/well). The extract was assayed for DNA content using the Pico Green DNA assay (Molecular Probes, Inc.).
# Cultured keratinocytes were treated with cis-9-trans-11 conjugated linoleic acid (CT-CLA) for 4 days. The cells were extracted with Tris-1% Triton X100 and the DNA content per well was determine by the Pico Green assay in accordance with the above described procedure.
# [2] = target: T1, human PPARα (Homo sapiens, UniProt Q07869); assay: PPARα reporter gene assay (firefly luciferase, transiently transfected Cos-7 cells); assay type: cell-based; details: for Result (superior activity class achieved): class reached; for Pass at (lowest tested administration level at which the test material passed): pass = activation greater than oleic acid at 100 μM, commonly >1.57 times vehicle control, 24 h treatment
# T1 construct: The coding region of a human PPARα cDNA was inserted downstream of the CMV promoter; expressed in transfected cells; host or cells: Cos-7 cells, transient transfection (pcDNA3.1(−)-PPARα, pRSV-RXRα, 3xPPRE-TK-luc reporter, pRL-TK)
# T1 sequence (Q07869 1-468): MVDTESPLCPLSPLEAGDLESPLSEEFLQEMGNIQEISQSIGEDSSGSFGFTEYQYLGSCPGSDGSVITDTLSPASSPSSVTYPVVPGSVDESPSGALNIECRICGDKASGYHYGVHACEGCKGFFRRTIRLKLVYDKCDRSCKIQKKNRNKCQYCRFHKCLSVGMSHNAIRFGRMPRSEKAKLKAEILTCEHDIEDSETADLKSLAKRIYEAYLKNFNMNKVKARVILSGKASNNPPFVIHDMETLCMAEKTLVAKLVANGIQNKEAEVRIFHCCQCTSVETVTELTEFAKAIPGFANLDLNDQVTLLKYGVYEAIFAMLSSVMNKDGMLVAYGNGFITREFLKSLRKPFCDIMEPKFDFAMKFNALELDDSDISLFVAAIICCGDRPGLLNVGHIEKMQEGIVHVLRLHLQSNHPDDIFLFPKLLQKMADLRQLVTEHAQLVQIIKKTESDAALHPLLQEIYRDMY
# T1 sequence (P19793 1-462 partner): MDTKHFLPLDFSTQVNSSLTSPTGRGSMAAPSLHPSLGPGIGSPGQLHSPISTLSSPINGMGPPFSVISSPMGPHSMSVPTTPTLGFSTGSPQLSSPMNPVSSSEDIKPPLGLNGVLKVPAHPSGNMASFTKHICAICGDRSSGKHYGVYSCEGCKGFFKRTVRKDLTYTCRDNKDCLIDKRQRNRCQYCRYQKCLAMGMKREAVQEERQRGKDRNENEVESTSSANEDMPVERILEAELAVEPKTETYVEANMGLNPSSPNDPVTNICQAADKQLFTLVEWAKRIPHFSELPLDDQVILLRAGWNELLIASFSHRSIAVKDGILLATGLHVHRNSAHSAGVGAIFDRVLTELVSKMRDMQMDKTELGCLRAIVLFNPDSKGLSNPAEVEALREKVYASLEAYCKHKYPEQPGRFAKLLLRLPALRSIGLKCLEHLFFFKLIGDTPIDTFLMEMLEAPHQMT
# Source text: One convenient reporter assay for determining whether a fatty acid material is PPARα activating is based upon the firefly luciferase gene.
# Fatty acids were screened to identify PPAR activating fatty acids using a reporter assay.
# This assay relied on ligands binding to and activating the PPARα protein, which, in turn, activated genes under the control of PPAR response elements (PPRE). In the assay, the firefly luciferase gene was cloned behind a promoter containing 3 copies of the fatty acid binding protein PPRE.
# The assay was performed by transient transfection of Cos-7 cells with a mixture of four DNA plasmids. These were:
# 1) PPAR reporter gene construct (Modified pNF-KB-luc reporter vector (Firefly luciferase reporter vector commercially available form Clontech (NF-kB response element, TK minimal promoter, luc^+, f1 origin, pUC origin, amp^r)). A tandem repeat of 3 PPAR response elements (PPREs) corresponding to the PPRE found in the fatty acid binding protein promoter was inserted upstream of the minimal TK promoter to replace the NF-κB response element);
# 2) 2) Over-expressing PPARα construct (Modified pcDNA3.1(−) vector (A mammalian expression vector commercially available from Invitrogen (CMV promoter, f1 origin, SV40 origin, ColE1 origin, neo^r, amp^r)). The coding region of a human PPARα cDNA was inserted downstream of the CMV promoter of pcDNA3.1 (−)). […] The coding region of a human RXRα cDNA has been inserted downstream of the RSV promoter. (Gift of V. K. K. Chatterjee, Addenbrooke's Hospital, Cambridge)) 4) Control luciferase construct (pRL-TK Renilla luciferase reporter vector commercially available from Promega (HSV-TK promoter, T7 promoter, Rluc^+, ori, amp^r)). For the transfection, DNA was made up as a mix of PPAR reporter gene: PPARα: RXRα: control in the ratio 40:4:3:3.
# Cos-7 cells were grown in Dulbecco's modified Eagle's Medium, also herein referred to as DMEM with 10% foetal calf serum, herein also referred to as FCS at 37° C., 5% CO2 to 80% confluency. Cells were then plated out in 24 well plates at 50,000 cells per well and incubated overnight in DMEM with 10% FCS at 37° C., 5% CO2. Cells were then transfected using the LipofectAMINE reagent (GibcoBRL). For each well 0.4 μg of DNA mix (in 25 μl of DMEM) was incubated with 1 μl LipofectAMINE (in 25 μl of DMEM) for 45 minutes. The mixture was then made up to 250 μl per well and added to the cells, which had been washed with 1 ml of DMEM. Cells were then incubated for 5 hours at 37° C., 5% CO2 and 250 μl DMEM with 10% SBCS (charcoal stripped bovine calf serum) added. Cells were incubated for 18 hours at 37° C., 5% CO2 before being treated with the appropriate compound/extract. Test compounds were made up as 1000× stocks (in DMSO or ethanol as appropriate) and diluted into DMEM with 10% SBCS (500 μl per well) immediately before being added to cells. Each treatment was performed in triplicate. The transfection mix was removed from the cells and replaced with the treatment mix, and incubated for 24 hours at 37° C., 5% CO2. Cells were washed with 1 ml of PBS (without calcium or magnesium) and then lysed with 100 μl per well of 1× Passive Lysis Buffer (as supplied with Promega Dual Luciferase assay kit). Lysis was allowed to continue for 15 minutes and then the lysate was assayed for Firefly and Renilla luciferase activity using the Promega Dual Luciferase assay kit. For the assay, 20 μl of lysate was taken and assayed as described in the kit instructions using a MLX microtiter™ plate luminometer (Dynex).
# Firefly luciferase activity (PPAR driven) was normalised against the Renilla luciferase value for that well and the mean calculated for the three wells treated with the same agent. Activity was then expressed as fold activation over the vehicle (DMSO or ethanol) control values for that particular plate.
# [3] = tested on: Transglutaminase (TGase); assay: Keratinocyte transglutaminase (TGase) assay; assay type: cell-based, human; details: for TGase/ng DNA: 4 days, 30 μM Ca2+, control (0 μM) 16.82
# Procedure: as §1
# The remaining cell debris attached to the 96 well plate was incubated with 70 μl/well of TGase assay buffer (50 mM Tris™ pH 8.0, 5 mM DTT, 50 mM CaCl2, 150 mM NaCl, 15 μM Texas Red Cadaverine) and incubated for 16 hours at 37° C. The plates were then washed with distilled water (×2) and the fluorescence due to cross-linked Texas Red cadaverine was determined using excitation at 590 nm and emission of 645 nm.
# Cultured keratinocytes were treated with cis-9-trans-11-conjugated linoleic acid (CT-CLA) for 4 days. The cells were extracted with Tris-1% Triton X100™ and the non-extractable TGase activity associated with the cells was determined using Texas Red Cadaverine (in accordance with the methods described above).
# [4] = tested on: volunteers (volar forearm); assay: Human patch test irritation analysis; assay type: in vivo; details: 0.25% incorporated into the formulation; Wilcoxon signed rank test, 5% level
# Procedure: Patch tests were performed on mixed panel of 50 volunteers with age ranges between 18 and 55, using a double-blinded protocol with randomised patch sites. Samples (20 mg) were applied to a filter paper that was placed within a Finn™ chamber (0.8 cm internal diameter). The chambers were then attached to the volar forearm using Scanpore™ tape (Norgesplater, Nor.) and left for 47 h.
# [5] = tested on: interleukin-6 (IL-6); assay: Skin organotypic culture analysis: AP-induced IL-6 release into the medium; assay type: cell-based; details: 500 μM in medium, AP formulation topical, 24 h; Dunnet's test p<0.05
# Procedure: (§2) The cultures were then incubated at 37° C., 5% CO2, and 95% relative humidity (standard cell culture conditions) for 24 h. The culture medium was assayed for the pro-inflammatory cytokine interleukin-6 (IL-6) and after washing to remove the AP formulation, the viability of the culture was determined using the Thiazoyl blue (MTT) assay (Mosmann, T. J. Immunol. Methods 65, p55 (1983). IL-6 was determined using an Immunoassay (Quantikine, R&D systems).
# (§3) In this Example, skin organotypic cultures (Epiderm™, MatTek, USA) were treated topically with the above-identified AP formulation and the trans-10-cis-12 conjugated linoleic acid (TC CLA) was introduced into the medium. The cultures were then incubated at 37° C., 5% CO2, and 95% relative humidity (standard cell culture conditions) for 24 h. The culture medium was assayed for the pro-inflammatory cytokine interleukin-6 (IL-6) and after washing to remove the AP formulation, the viability of the culture was determined by the method described in Example 2.
# as §2, with “hours.” for “h.”, “MTT assay.” for “Thiazoyl blue (MTT) assay (Mosmann, T. J. Immunol. Methods 65, p55 (1983).”, “ELISA assay (R&D” for “Immunoassay (Quantikine, R&D”
# [6] = tested on: skin organotypic cultures (Epiderm); assay: Viability of skin organotypic cultures (MTT assay); assay type: cell-based
# Procedure: as §2, §3
# as §2, with “hours.” for “h.”, “MTT assay.” for “Thiazoyl blue (MTT) assay (Mosmann, T. J. Immunol. Methods 65, p55 (1983).”, “ELISA assay (R&D” for “Immunoassay (Quantikine, R&D”
# [7] = tested on: Human foreskin keratinocytes; assay: Keratinocyte cornified envelope assay; assay type: cell-based; details: for Cornified envelopes assay: 4 days, control (0 μM) 22831
# Procedure: as §1
# After Tris-triton extraction for TGase assay, the cells were extracted with 100 μl/well of 2% SDS, 20 mM DTT for 16 hours at 60° C. Once extracted the SDS suspension from each well was individually filtered through polyviylidenefluoride (PVDF) membrane (Immobilon-P™ Transfer Membrane, Millipore) which had been pre-blocked in Tris Buffered Saline (TBS) containing 0.5% (v/v) Tween 20, 0.5% using a Dot Blot TM Apparatus (Bio-Rad). Each sample was washed several times with TBS/Tween buffer before the membrane was removed from the apparatus, rinsed in distilled water and silver stained using silver stain kit (Bio-Rad). The stained dot blot membrane was scanned and analysed using Phoretix Array™ software.
# Cultured keratinocytes were treated with pinoleic acid for 4 days. The cells were extracted with 2% SDS, 20 mM DTT and the cornified envelopes were quantified, after filtration using a PDVF membrane, by silver staining, as described above.
structure (smiles),measurement,setting,value
"CCCCCC/C=C/C=C\CCCCCCCC(=O)O [CLA (c9, t11), cis-9-trans-11 conjugated linoleic acid]","keratinocyte DNA synthesis activity, statement",[1]; Example 10: 10 μM,significantly reduce
same,DNA,"[1]; Table 11: 0.1 μM, control (0 μM) 92.17",81.83 ng/well
same,DNA,"[1]; Table 11: 1 μM, control (0 μM) 92.17",81.33 ng/well
same,DNA,"[1]; Table 11: 10 μM, control (0 μM) 92.17",59.50 ng/well
same,Result at (lowest administration level at which super or MS activity was achieved),[2],25 μm
same,Result (superior activity class achieved),[2],super (superior activity [super] (50% higher—at least 2.25 times PPARα activation))
same,Pass at (lowest tested administration level at which the test material passed),[2],10 μm
same,TGase/ng DNA,[3]; 0.1 μM,18.30
same,TGase/ng DNA,[3]; 1 μM,18.46
same,TGase/ng DNA,[3]; 10 μM,28.07
same,"keratinocyte TGase activity, statement","[3]; 1 way ANOVA, p<0.05",significantly increase
"CCCCCCCCCCC/C=C\CCCCC(=O)O [Petroselinic acid, petroselinic acid]",mitigation of irritation induced by the prototype pump spray,[4],significantly mitigated
same,Result at (lowest administration level at which super or MS activity was achieved),[2],100 μm
same,Result (superior activity class achieved),[2],MS (more superior activity [MS] (100% higher—at least 3 times PPARα activation))
same,Pass at (lowest tested administration level at which the test material passed),[2],10 μm
same,AP-induced IL-6 release,[5],significantly decrease
same,Culture viability,[6]; Example 2: AP formulation alone vs AP formulation and petroselinic acid,not significantly different
same,Culture viability,[6]; Example 4: AP treatment alone vs AP and acid treatment,not significantly different
"CCCCC/C=C\C/C=C\CC/C=C\CCCC(=O)O [Pinolenic acid, pinolenic acid]","keratinocyte DNA synthesis activity, statement",[1]; Example 11: 10 μM,significantly reduce
same,DNA,"[1]; Table 12: 0.1 μM, control (0 μM) 14.46",13.41 ng/well
same,DNA,"[1]; Table 12: 1 μM, control (0 μM) 14.46",12.95 ng/well
same,DNA,"[1]; Table 12: 10 μM, control (0 μM) 14.46",12.63 ng/well
same,"cornified envelope formation, statement","[7]; Example 8: 10 μM, 1 way ANOVA, p<0.05",significantly increase
same,Cornified envelopes assay,[7]; Table 9: 0.1 μM,18828 arb. Units
same,Cornified envelopes assay,[7]; Table 9: 1 μM,24860 arb. Units
same,Cornified envelopes assay,[7]; Table 9: 10 μM,36579 arb. Units
same,Pass at (lowest tested administration level at which the test material passed),[2],10 μm
